SMILES strings stand for the structures. Numbers after ± are expanded uncertainties.

A short description of this data set: molar enthalpy of vaporization or sublimation. As to conditions: 298.15 K, Static calorimetry.

Consider `COc1cccc(OC)c1O` [1,3-dimethoxy-2-hydroxybenzene], for which the molar enthalpy (Crystal) stood at 98.4 ± 1.8 kJ/mol.

For `COc1cccc(O)c1OC` [2,3-dimethoxyphenol], under “Liquid”, the molar enthalpy amounted to 76.5 ± 1.7 kJ/mol.

In the case of `COc1ccccc1O` [2-methoxyphenol], the molar enthalpy (Liquid) is 62.6 ± 1.1 kJ/mol.

For the compound `COc1cc(O)cc(OC)c1` [3,5-dimethoxyphenol], the molar enthalpy (Crystal) is 101 ± 3 kJ/mol.

`COc1cccc(O)c1` [3-methoxyphenol]: the molar enthalpy (Liquid) turned out to be 75.9 ± 1.8 kJ/mol.

In the case of `COc1ccc(O)cc1` [4-methoxyphenol], the molar enthalpy (Crystal) came to 94.4 ± 1.8 kJ/mol.

These data come from the NIST ThermoML archive (doi:10.1021/je025641j).
